Laboratory results as given in paper PMC7462607 (eLife, 2020).
Where two headings read alike, the source gives them in different places.

B1: HBx peptide (α-helical motif of the hepatitis B virus X protein) (peptide)
peptide: ILPKVLHKRTLGLS
notes: peptide corresponding to the α-helical motif of hepatitis B virus X protein (HBx); also called HBx peptides; source: synthetic peptide (ChinaPetides, purity 96%)

How the values were obtained:
[1] = tested on: CCNK-luc reporter; test: CCNK-luc degradation assay; format: cell-based, Homo sapiens
Protocol: The ORF for CCNK was fused with the firefly luciferase (luc) sequence and inserted into the pCDNA3.1 vector. For setting up cells for co-transfection, 0.6 million 293 T cells were seeded per well in 6-well plates and allowed to attach to plates overnight. These cells were then transfected with 50 ng of pCDNA3.1-3xFLAG-CDK12 kinase domain, 50 ng of pCDNA3.1-CCNK-luc, and 400 ng of the empty pCDNA3.1 vector. Twenty-four hours later, transfected cells were dissociated by trypsin digestion and then plated in 96-well white plates. After overnight attachments, cells were then treated with HQ461 and its analog derivatives for 8 hr followed by measurements of luciferase activity with Bright-Glo luciferase assay system (Promega, Madison, USA). Half maximal CCNK-degradation concentrations (DC50) of HQ461 and its active analogs were interpolated by curve fitting with GraphPad Prism using baseline correction (by normalizing to DMSO control), the asymmetric (five parameter) equation, and least squares fit.

[2] = tested on: CCNK; test: Western blotting of CCNK protein level in A549 cells; format: cell-based, Homo sapiens; details: for effect on HQ461-dependent CCNK degradation: A549 treated with HQ461 plus inhibitor; for CCNK degradation by compound alone: A549; for effect on HQ461-induced CCNK degradation: A549 treated with inhibitor prior to HQ461 treatment
Protocol: Standard SDS-PAGE and western blotting procedures were used with the following modifications. For preparation of total lysates, cells were rinsed with DPBS to remove residual medium and then lysed in 20 mM HEPES-NaOH, pH 8.0, 10 mM NaCl, 2 mM MgCl2, 1% SDS freshly supplemented with 0.5 units/µL of benzonase and 1x cOmplete, Mini, EDTA-free protease inhibitor cocktail (Roche, Bazel, Switzerland). Protein concentrations of the resulting lysates were quantified by the BCA method. Between 30 to 60 µg of proteins were resolved on SDS-PAGE and transferred to nitrocellulose membranes with a pore size of 0.5 μm. Membranes were blocked in 5% nonfat milk PBST (0.1% v/v Tween-20) for 30 min before blotting with antibodies. The following primary antibodies were used by dilution in 5% nonfat milk PBST: anti-NRF2 (Abcam, Cambridge, UK, ab62352, 1:4,000), anti-β-Actin-HRP (Huaxingbio, Beijing, China, HX18271,1:10,000), anti-α-Tubulin-HRFP (MBL Life Science, Japan, PM054-7, 1:10,000), anti-DDB1 (Abcam, Cambridge, UK, ab109027, 1:10,000), anti-RBX1 (Proteintech, Wuhan, China, 14895–1-AP, 1:5,000), anti-UBE2G1 (Proteintech, Wuhuan, China, 12012–1-AP, 1:2,000), anti-CDK12 (Cell Signaling Technology, Danvers, USA, 11973S,1:4,000), anti-CCNK (Bethyl lab, Montgomery, USA, A301-939A-T,1:4,000), anti-FLAG-HRP (Sigma-Aldrich, MO, USA, A8592, 1:10,000), anti-HA (BioLegend, San Diego, USA, 901533, 1:4,000), anti-RNA polymerase II subunit B1 (phospho CTD Ser-2) clone 3E10 (Sigma-Aldrich, MO, USA, 04–1571, 1:5,000), and anti-RNA polymerase II CTD repeat YSPTSPS antibody clone 8WG16 (Abcam, Cambridge, UK, ab817, 1:5,000). The following HRP-linked secondary antibodies were used by dilution in PBST: anti-rabbit IgG (Cell Signaling Technology, Danvers, USA, 7074S, 1:10,000), anti-mouse IgG (Zsbio, Beijing, China, ZB-2305, 1:10,000), and anti-rat IgG, (Sino Biological, Beijing, China, SSA005, 1:10,000). M5 HiPer ECL Western HRP Substrate (Mei5bio, Beijing, China, MF074-01) was used for the detection of HRP enzymatic activity. Western blot images were taken with a VILBER FUSION FX7 imager.

[3] = target: T1, FLAG-Avi-DDB1 and His-CDK12KD/His-CCNKΔC (WT) (Homo sapiens, UniProt Q9NYV4); test: AlphaScreen assay, WT; format: binding; details: preincubated with 5 µM THZ531
T1 construct: Human CDK12KD (residues 715–1052); made in house; host or cells: Sf9 or High Five (CDK12KD/CCNKΔC, co-infected with yeast CAK1); 293F with BirA (FLAG-Avi-DDB1)
Protocol: Biotinylated FLAG-Avi-DDB1 (3 µM) and 6xHis-CDK12KD/6xHis-CCNKΔC (WT or G731E/R mutants) (3 µM) were mixed in an assay buffer (50 mM HEPES, pH7.5, 300 mM NaCl, 0.5 mM TCEP, 0.1% NP-40, 0.1% BSA) and a serial dilution of HQ461.The protein-compound mix was transferred to 384-well plates (Corning, Corning, USA); 15 μL per well. After a 1 hr room temperature incubation, 10 µL of nickel chelate (Ni-NTA) acceptor beads (PerkinElmer, Waltham, USA, Waltham, USA, 6760619C) (1:100 diluted with assay buffer) was added per well. After incubation in the dark for 1 hr at room temperature, 10 μL of streptavidin donor beads (PerkinElmer, Waltham, USA, 6760619C) (1:100 diluted in assay buffer) was added per well. After another 1 hr incubation, AlphaScreen signal was measured on the EnVision multimode plate reader (PerkinElmer, Waltham, USA). For THZ531 competition, FLAG-Avi-DDB1, 6xHis-CDK12KD/6xHis-CCNKΔC mix was preincubated with 5 μM of THZ531 for 30 min on ice followed by the procedures described above.

[4] = target: T2, DDB1ΔBPB (DDB1 without its BPB domain) (human, UniProt Q16531-1 1-1140, removing residues 400–704); test: differential scanning fluorimetry; 5 µM DDB1ΔBPB with 10 µM HBx peptide; SYPRO Orange; 50 mM HEPES pH 7.5, 300 mM NaCl, 0.5 mM TCEP; 10°C to 95°C; details: both partners purified
T2 construct: also called Strep-8×His-DDB1ΔBPB

[5] = 293T, 8 hr, read-out: DC50 (half maximal CCNK-degradation concentration)

T2 sequence (Q16531 other isoform, or with tags, fused parts or gaps with the stated changes): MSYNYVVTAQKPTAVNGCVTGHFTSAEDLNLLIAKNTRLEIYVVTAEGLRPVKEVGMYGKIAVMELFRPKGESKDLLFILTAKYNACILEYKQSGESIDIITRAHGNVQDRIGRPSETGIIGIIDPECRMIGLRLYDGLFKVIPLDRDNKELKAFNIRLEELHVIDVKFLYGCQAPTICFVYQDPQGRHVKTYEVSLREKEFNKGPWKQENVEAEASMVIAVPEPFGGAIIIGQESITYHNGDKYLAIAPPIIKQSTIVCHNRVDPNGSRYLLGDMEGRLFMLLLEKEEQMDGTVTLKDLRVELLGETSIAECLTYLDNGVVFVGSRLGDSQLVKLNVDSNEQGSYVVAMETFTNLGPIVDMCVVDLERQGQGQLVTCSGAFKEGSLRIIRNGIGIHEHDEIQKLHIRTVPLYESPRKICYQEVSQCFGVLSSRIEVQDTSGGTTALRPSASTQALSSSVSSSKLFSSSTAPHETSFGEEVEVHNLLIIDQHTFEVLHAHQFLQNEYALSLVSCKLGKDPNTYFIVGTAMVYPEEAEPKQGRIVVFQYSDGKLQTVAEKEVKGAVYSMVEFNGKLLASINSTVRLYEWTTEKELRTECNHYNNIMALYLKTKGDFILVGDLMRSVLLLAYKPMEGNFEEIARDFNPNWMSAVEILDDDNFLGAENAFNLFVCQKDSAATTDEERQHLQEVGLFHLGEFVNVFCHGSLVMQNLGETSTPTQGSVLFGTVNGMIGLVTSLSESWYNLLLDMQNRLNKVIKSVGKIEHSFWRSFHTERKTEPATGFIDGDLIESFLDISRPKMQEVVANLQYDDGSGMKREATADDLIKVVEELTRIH
T1 sequence (Q9NYV4 715-1052 limits assumed, stated change not applied): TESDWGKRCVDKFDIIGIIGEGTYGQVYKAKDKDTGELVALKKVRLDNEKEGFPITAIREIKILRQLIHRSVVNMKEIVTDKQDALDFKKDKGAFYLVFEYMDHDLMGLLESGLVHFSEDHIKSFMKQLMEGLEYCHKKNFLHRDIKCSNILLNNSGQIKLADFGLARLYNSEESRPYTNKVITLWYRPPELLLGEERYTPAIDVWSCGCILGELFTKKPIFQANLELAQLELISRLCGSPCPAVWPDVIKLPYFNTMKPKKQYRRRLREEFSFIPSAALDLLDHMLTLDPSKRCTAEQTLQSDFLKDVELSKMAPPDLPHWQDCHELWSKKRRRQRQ
T1 sequence (O75909 11-267 partner limits assumed): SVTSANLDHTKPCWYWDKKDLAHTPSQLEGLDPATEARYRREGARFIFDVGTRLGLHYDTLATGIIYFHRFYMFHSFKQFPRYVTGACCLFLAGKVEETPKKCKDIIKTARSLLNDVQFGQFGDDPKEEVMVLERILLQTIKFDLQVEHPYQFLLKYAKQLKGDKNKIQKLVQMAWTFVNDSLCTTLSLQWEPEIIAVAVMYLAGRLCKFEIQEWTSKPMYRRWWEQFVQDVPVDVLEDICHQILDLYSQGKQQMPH
T1 sequence (Q16531 whole entry partner, the tested form may be a part): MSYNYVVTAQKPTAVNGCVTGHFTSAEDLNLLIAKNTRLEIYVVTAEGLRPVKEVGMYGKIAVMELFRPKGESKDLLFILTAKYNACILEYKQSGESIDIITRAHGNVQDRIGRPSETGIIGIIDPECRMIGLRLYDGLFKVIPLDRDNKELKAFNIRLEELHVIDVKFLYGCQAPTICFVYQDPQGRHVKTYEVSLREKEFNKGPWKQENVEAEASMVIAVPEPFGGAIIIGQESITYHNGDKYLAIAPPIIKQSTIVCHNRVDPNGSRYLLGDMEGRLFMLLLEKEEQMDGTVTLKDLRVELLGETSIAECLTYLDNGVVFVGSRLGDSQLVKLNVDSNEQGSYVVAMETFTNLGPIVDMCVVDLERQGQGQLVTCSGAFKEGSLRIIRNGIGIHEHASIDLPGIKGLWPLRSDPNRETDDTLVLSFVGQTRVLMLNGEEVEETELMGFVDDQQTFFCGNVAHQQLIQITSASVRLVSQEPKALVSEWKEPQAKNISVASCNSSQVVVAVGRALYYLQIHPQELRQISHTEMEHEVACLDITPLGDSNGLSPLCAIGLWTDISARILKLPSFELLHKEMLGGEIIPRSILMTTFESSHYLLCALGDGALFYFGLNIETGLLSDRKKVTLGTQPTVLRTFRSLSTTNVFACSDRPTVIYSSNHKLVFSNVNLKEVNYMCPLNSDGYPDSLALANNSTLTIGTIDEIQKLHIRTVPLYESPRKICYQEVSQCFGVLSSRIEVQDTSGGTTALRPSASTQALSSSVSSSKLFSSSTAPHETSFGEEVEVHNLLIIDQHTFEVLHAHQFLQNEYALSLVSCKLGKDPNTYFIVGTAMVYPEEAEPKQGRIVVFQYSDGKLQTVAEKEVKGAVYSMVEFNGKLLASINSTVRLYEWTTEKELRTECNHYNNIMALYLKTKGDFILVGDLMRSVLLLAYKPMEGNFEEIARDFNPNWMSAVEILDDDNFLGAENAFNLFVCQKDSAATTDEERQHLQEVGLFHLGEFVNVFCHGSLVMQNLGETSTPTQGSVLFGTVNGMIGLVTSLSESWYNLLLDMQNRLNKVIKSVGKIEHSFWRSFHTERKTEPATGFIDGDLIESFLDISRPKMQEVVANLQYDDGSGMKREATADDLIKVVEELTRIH

| Molecule | Dmax (10 μM), percentage of CCNK degradation relative to DMSO control ([1]; 8 hr) | DC50 [1, 5] | further results |
| --- | --- | --- | --- |
| NC(=O)CNC(=O)Cc1csc(Nc2ccccn2)n1 [HQ022] | 25.7% |  |  |
| NS(=O)(=O)OC[C@@H]1C[C@@H](n2ccc3c(N[C@H]4CCc5ccccc54)ncnc32)C[C@@H]1O [MLN4924] |  |  | effect on HQ461-dependent CCNK degradation [2]: abrogated HQ461-dependent CCNK degradation |
| NC(=O)c1ccccc1NC(=O)Cc1csc(Nc2ccccn2)n1 [HQ021] | 7.8% |  |  |
| Cc1cnc(NC(=O)Cc2csc(Nc3cccc(CO)n3)n2)s1 [HQ005, 2-(2-((6-(hydroxymethyl)pyridin-2-yl)amino)thiazol-4-yl)-N-(5-methylthiazol-2-yl)acetamide] | 86.5% |  | fold increase in potency relative to HQ461 [1]: 3 fold; DC50 ([1]; read-out: DC50): 41 nM |
| Cc1ccnc(Nc2nc(CC(=O)Nc3nc4c(s3)CCCC4)cs2)c1 [HQ018] | 18.8% |  |  |
| Cc1cccc(Nc2nc(CC(=O)NC(C)c3ccccc3)cs2)n1 (centres unmarked) [HQ015] | 8.6% |  |  |
| Cc1cnc(NC(=O)Cc2csc(Nc3ccccn3)n2)s1 [HQ010, N-(5-methylthiazol-2-yl)−2-(2-(pyridin-2-ylamino)thiazol-4-yl)acetamide] |  | 811 nM | fold increase in DC50 relative to HQ461 [1]: 6 fold |
| Cc1cccc(Nc2nc(CC(N)=O)cs2)n1 [HQ017] | 4.2% |  |  |
| CCc1cccc(Nc2nc(CC(=O)Nc3ncc(C)s3)cs2)n1 [HQ004, 2-(2-((6-ethylpyridin-2-yl)amino)thiazol-4-yl)-N-(5-methylthiazol-2-yl)acetamide] |  | 542 nM |  |
| O=C(Cc1csc(Nc2ccccn2)n1)NCc1nc2ccccc2[nH]1 [HQ020] | 15.5% |  |  |
| Cc1cnc(NC(=O)Cc2csc(Nc3cccc(F)n3)n2)s1 [HQ001, 2-(2-((6-fluoropyridin-2-yl)amino)thiazol-4-yl)-N-(5-methylthiazol-2-yl)acetamide] |  | 300 nM |  |
| Cc1cnc(NC(=O)Cc2csc(Nc3cccc(-n4cccn4)n3)n2)s1 [HQ008, 2-(2-((6-(1H-pyrazol-1-yl)pyridin-2-yl)amino)thiazol-4-yl)-N-(5-methylthiazol-2-yl)acetamide] |  | 5030 nM | fold increase in DC50 relative to HQ461 [1]: 38 fold |
| CC(=O)Nc1nc(CC(=O)Nc2ncc(C)s2)cs1 [HQ019] | 62.0% |  | CCNK degradation activity relative to HQ461 [1]: losses in activity |
| CN(C)C/C=C/C(=O)Nc1ccc(C(=O)N2CCC[C@@H](Nc3ncc(Cl)c(-c4c[nH]c5ccccc45)n3)C2)cc1 [THZ531] |  |  | CCNK degradation by compound alone [2]: Neither THZ531 nor dinaciclib treatment caused CCNK degradation; effect on HQ461-induced CCNK degradation [2]: prevented CCNK degradation; effect on HQ461-dependent formation of the CDK12KD/CCNKΔC/DDB1 complex [3]: inhibited HQ461-dependent formation of the CDK12KD/CCNKΔC/DDB1 complex |
| COc1cccc(Nc2nc(CC(=O)Nc3ncc(C)s3)cs2)n1 [HQ006, 2-(2-((6-methoxypyridin-2-yl)amino)thiazol-4-yl)-N-(5-methylthiazol-2-yl)acetamide] |  | 466 nM |  |
| CC(C)C[C@H](NC(=O)[C@H](Cc1ccccc1)NC(=O)c1cnccn1)B(O)O [bortezomib] |  |  | effect on HQ461-dependent CCNK degradation [2]: abrogated HQ461-dependent CCNK degradation |
| CCc1cnn2c(NCc3ccc[n+]([O-])c3)cc(N3CCCC[C@H]3CCO)nc12 [dinaciclib] |  |  | CCNK degradation by compound alone [2]: Neither THZ531 nor dinaciclib treatment caused CCNK degradation; effect on HQ461-induced CCNK degradation [2]: prevented CCNK degradation |
| Cc1cnc(NC(=O)Cc2csc(Nc3cccc(N)n3)n2)s1 [HQ007, 2-(2-((6-aminopyridin-2-yl)amino)thiazol-4-yl)-N-(5-methylthiazol-2-yl)acetamide] |  | 561 nM |  |
| Nc1nc(CC(=O)Nc2nc(-c3ccco3)cs2)cs1 [HQ013, 2-(2-aminothiazol-4-yl)-N-(4-(furan-2-yl)thiazol-2-yl)acetamide] | 8.6% |  |  |
| Cc1cnc(NC(=O)Cc2csc(Nc3cccc(Cl)n3)n2)s1 [HQ002, 2-(2-((6-chloropyridin-2-yl)amino)thiazol-4-yl)-N-(5-methylthiazol-2-yl)acetamide] |  | 471 nM |  |
| Cc1cnc(NC(=O)Cc2csc(NC(=O)c3cccc(Br)n3)n2)s1 [HQ014, 6-bromo-N-(4-(2-((5-methylthiazol-2-yl)amino)−2-oxoethyl)thiazol-2-yl) Picolinamide] | 9.9% |  | CCNK degradation activity relative to HQ461 [1]: losses in activity |
| Cc1cnc(NC(=O)Cc2csc(N)n2)s1 [HQ011, 2-(2-aminothiazol-4-yl)-N-(5-methylthiazol-2-yl)acetamide] |  |  | CCNK degradation activity relative to HQ461 [1]: losses in activity |
| Cc1cnc(NC(=O)Cc2csc(Nc3cccc(C(F)(F)F)n3)n2)s1 [HQ009, N-(5-methylthiazol-2-yl)−2-(2-((6-(trifluoromethyl)pyridin-2-yl)amino)thiazol-4-yl)acetamide] |  | 2360 nM |  |
| Cc1cnc(NC(=O)Cc2csc(Nc3cccc(Br)n3)n2)s1 [HQ003, 2-(2-((6-bromopyridin-2-yl)amino)thiazol-4-yl)-N-(5-methylthiazol-2-yl)acetamide] |  | 407 nM |  |
| CCc1ccccc1NC(=O)Cc1csc(Nc2ccccn2)n1 [HQ023] | 3.0% |  |  |
| B1 |  |  | increase in Tm [4]: 2 °C |
